Assay results: patent US4845093A, “N-benzoyl-N'-pyridazinyloxyphenyl urea compounds, and antitumorous compositions containing them, and process for their preparation” (Ishihara Sangyo Kaisha Ltd., priority 1984, dated 1989)
Where two headings read alike, the source gives them in different places.

Key:
p-388 leukemia cells [1] = experiment: Antitumour activity, P-388 leukemia in BDF1 mice, intraperitoneal-intraperitoneal (Test Example 1); type: in vivo; details: Mus musculus, P388, ip, 720 h, read-out: ILS (Increase Life Span); for ILS at 200 mg/kg: 200 mg/kg/day i.p.; for ILS at 400 mg/kg: 400 mg/kg/day i.p.
Method: To BDF1 mice, p-388 leukemia cells were intraperitoneally inoculated in an amount of 1×10^6 cells/mouse. A test drug was intraperitoneally administered twice, i.e. one day and four days after the inoculation. […] The increase life span ILS (%)^* was obtained with the number of survival days of mice of the control group to which a physiological saline was administered, being evaluated as 100. The drugs were dispersions obtained by adding small amounts of surfactants (e.g. Tween-80) to the test compounds.
*ILS(%): Increase Life Span, calculated in accordance with the following
formula: ILS(%) = MST - 100, where MST is the ratio of median survival
time of test and control animals.

p-388 leukemia cells [2] = experiment: Antitumour activity, P-388 leukemia in BDF1 mice, intraperitoneal-oral (Test Example 2); type: in vivo; details: one and four days after i.p. inoculation, Formulation Example 4
Source text: To BDF1 mice, p-388 leukemia cells were intraperitoneally inoculated in an amount of 1×10^6 cells/mouse. A test drug was orally administered twice i.e. one day and four days after the inoculation. […] The test drugs and comparative drugs were formulated in accordance with Formulation Example 4 given hereinafter.
*ILS(%), **Comparative Compound No. 1 and ***Comparative Compound No. 2
are the same as mentioned above in the notes of Table 1.
(§1) The Compound No. 1 of the present invention was preliminarily pulverized by a centrifugal pulverizer. On the other hand, 5 parts by weight of polyoxyethylene (60) hardened castor oil, 0.2 part by weight of silicone and 0.3 part by weight of a polyoxyethylene-polyoxypropylene block polymer were added to 79.5 parts by weight of a physiological saline to obtain an aqueous solution, to which 10 parts by weight of the above pulverized Compound No. 1 of the present invention was added. The mixture was pulverized in a wet system by a sand mill using glass beads (80% of particles having a particle size of not larger than 2 μm). Then, 5 parts by weight of xanthane gum (2% solution) was added thereto to obtain an aqueous suspension.

[3] = Acute toxicity in ddY mice, intraperitoneal; details: mouse, in vivo, ip, ddY mice (10 animals), formulated per Formulation Example 4
Method: To ddY mice (10 animals), a drug containing one of Compound Nos. 1-7 and 9-13 of the present invention formulated in accordance with Formulation Example 4 was intraperitoneally administered, and the LD50 value was measured and found to be at least 100 mg/kg in each case, and at least 50 mg/kg in the case of Compound Nos. 8 and 14 of the present invention.
as §1

[4] = one and four days after i.p. inoculation, 30 days observation
[5] = 100 mg/kg/day i.p., one and four days after i.p. inoculation, 30 days observation

Row | SMILES | ILS at 200 mg/kg (p-388 leukemia cells [1]; [4]) | LD50 [3] | also measured
1 | O=c1[nH]cc(F)c(=O)[nH]1 [5-Fluorouracil, reference compound] |  |  | ILS at 60 mg/kg (p-388 leukemia cells [1]): 85%
2 | O=C(NC(=O)c1ccccc1Cl)Nc1ccc(Oc2ccc(Cl)nn2)c(Cl)c1 [Comparative Compound No. 1, N--(2chlorobenzoyl)-N'--[3chloro-4-(3-chloro-6-pyridazinyloxy)phenyl]urea, reference compound] | 24% |  | ILS at 400 mg/kg (p-388 leukemia cells [1]; [4]): 42%; ILS (Increase Life Span) (p-388 leukemia cells [2]; 800 mg/kg/day oral): 10%
3 | O=C(NC(=O)c1c(Cl)cccc1Cl)Nc1ccc(Oc2ccc(Cl)nn2)c(Cl)c1 [Comparative Compound No. 2, N--(2,6dichlorobenzoyl)-N'--[3chloro-4-(3-chloro-6-pyridazinyloxy)phenyl]rea, reference compound] | -3% |  | ILS at 400 mg/kg (p-388 leukemia cells [1]; [4]): 5%; ILS (Increase Life Span) (p-388 leukemia cells [2]; 800 mg/kg/day oral): 0%
4 | O=C(NC(=O)c1ccccc1[N+](=O)[O-])Nc1ccc(Oc2ccc(Br)nn2)c(Cl)c1 [Compound No. 1, N-(2-nitrobenzoyl)-N'-[4-(6-bromo-3-pyridazinyloxy)3-chlorophenyl]urea] | 178% | ≥ 100 mg/kg | ILS (Increase Life Span) (p-388 leukemia cells [2]; 200 mg/kg/day oral): 58%
5 | O=C(NC(=O)c1ccccc1[N+](=O)[O-])Nc1ccc(Oc2ccc(Cl)nn2)c(Cl)c1 [Compound No. 2, N-(2-nitrobenzoyl)-N'-[3-chloro-4-(6-chloro-3pyridazinyloxy)phenyl]urea] | 71% | ≥ 100 mg/kg | 
6 | O=C(NC(=O)c1ccccc1[N+](=O)[O-])Nc1ccc(Oc2ccc(I)nn2)c(Cl)c1 [Compound No. 3, N-(2-nitrobenzoyl)-N'-[3-chloro-4-(6-iodo-3-pyridazinyloxy)phenyl]urea] |  | ≥ 100 mg/kg | ILS at 100 mg/kg (p-388 leukemia cells [1]; [5]): 92%
7 | O=C(NC(=O)c1ccccc1[N+](=O)[O-])Nc1ccc(Oc2cccnn2)c(Cl)c1 [Compound No. 4, N-(2-nitrobenzoyl)-N'-[3-chloro-4-(3-pyridazinyloxy)phenyl]urea] | 70% | ≥ 100 mg/kg | 
8 | O=C(NC(=O)c1ccccc1[N+](=O)[O-])Nc1ccc(Oc2ccc(C(F)(F)F)nn2)c(Cl)c1 [Compound No. 5, N-(2-nitrobenzoyl)-N'-[3-chloro-4-(6-trifluoro-methyl-3-pyridazinyloxy)phenyl]urea] | 75% | ≥ 100 mg/kg | 
9 | O=C(NC(=O)c1ccccc1[N+](=O)[O-])Nc1ccc(Oc2ccc(Br)nn2)c(Br)c1 [Compound No. 6, N-(2-nitrobenzoyl)-N'-[3-bromo-4-(6-bromo-3-pyridazinyloxy)phenyl]urea] |  | ≥ 100 mg/kg | 
10 | O=C(NC(=O)c1ccccc1[N+](=O)[O-])Nc1ccc(Oc2ccc(Br)nn2)cc1 [Compound No. 7, N-(2-nitrobenzoyl)-N'-[4-(6-bromo-3-pyridazinyloxy)phenyl]urea] |  | ≥ 100 mg/kg | ILS at 100 mg/kg (p-388 leukemia cells [1]): > 120%
11 | O=C(NC(=O)c1ccccc1[N+](=O)[O-])Nc1ccc(Oc2ccc(Cl)nn2)c(C(F)(F)F)c1 [Compound No. 8, N-(2-nitrobenzoyl)-N'-[4-(6-chloro-3-pyridazinyloxy)-3-trifluoromethylphenyl]urea] |  | ≥ 50 mg/kg | ILS at 100 mg/kg (p-388 leukemia cells [1]; [5]): 75%
12 | O=C(NC(=O)c1ccccc1[N+](=O)[O-])Nc1ccc(Oc2ccc(Br)nn2)c(F)c1 [Compound No. 9, N-(2-nitrobenzoyl)-N'-[4-(6-bromo-3-pyridazinyloxy)-3-fluorophenyl]urea] |  | ≥ 100 mg/kg | ILS at 100 mg/kg (p-388 leukemia cells [1]): 90%; ILS (Increase Life Span) (p-388 leukemia cells [2]; 200 mg/kg/day oral): 52%
13 | O=C(NC(=O)c1ccc(Cl)cc1[N+](=O)[O-])Nc1ccc(Oc2ccc(Br)nn2)c(Cl)c1 [Compound No. 10, N-(4-chloro-2-nitrobenzoyl)-N'-[4-(6-bromo-3-pyridazinyloxy)-3-chlorophenyl]urea] |  | ≥ 100 mg/kg | ILS at 100 mg/kg (p-388 leukemia cells [1]): 111%; ILS (Increase Life Span) (p-388 leukemia cells [2]; 400 mg/kg/day oral): 32%
14 | O=C(NC(=O)c1ccc([N+](=O)[O-])cc1[N+](=O)[O-])Nc1ccc(Oc2ccc(Br)nn2)c(Cl)c1 [Compound No. 11, N-(2,4-dinitrobenzoyl)-N'-[4-(6-bromo-3-pyridazinyloxy)-3-chlorophenyl]urea] |  | ≥ 100 mg/kg | ILS at 100 mg/kg (p-388 leukemia cells [1]): 102%
15 | O=C(NC(=O)c1ccccc1Cl)Nc1ccc(Oc2ccc(Cl)nn2)c(C(F)(F)F)c1 [Compound No. 12, N-(2-chlorobenzoyl)-N'-[4-(6-chloro-3-pyridazinyloxy)-3-trifluoromethylphenyl]urea] |  | ≥ 100 mg/kg | 
16 | Cc1cc(NC(=O)NC(=O)c2ccccc2[N+](=O)[O-])ccc1Oc1ccc(Cl)nn1 [Compound No. 13, N-(2-nitrobenzoyl)-N'-[4-(6-chloro-3-pyridazinyloxy)-3-methylphenyl]urea] |  | ≥ 100 mg/kg | 
17 | O=C(NC(=O)c1ccc([N+](=O)[O-])cc1[N+](=O)[O-])Nc1ccc(Oc2ccc(Cl)nn2)c(C(F)(F)F)c1 [Compound No. 14, N-(2,4-dinitrobenzoyl)-N'-[4-(6-chloro-3-pyridazinyloxy)-3-trifluoromethylphenyl]urea] |  | ≥ 50 mg/kg | 
